Results as given in PMC7413254 (Nature Communications, 2020).
Where two headings read alike, the source gives them in different places.

Key:
PfCRT [1] = assay: Test of solutes as potential co-substrates for influx of VF-6 via PfCRT into the oocyte; format: cell-based, Plasmodium falciparum; design: key: X: Compounds that have been tested as potential co-substrates but are not required for influx of VF-6 via PfCRT into the oocyte; settings: X = tested
PfCRT^3D7 [2] = biological target: T1, PfCRT^3D7 (Plasmodium falciparum, UniProt Q8IBZ9); assay: cell-based; format: cell-based; settings: PfCRT3D7 oocytes, total [3H]CQ transport, normalised to the oocyte type control
T1 sequence (Q8IBZ9 59-398): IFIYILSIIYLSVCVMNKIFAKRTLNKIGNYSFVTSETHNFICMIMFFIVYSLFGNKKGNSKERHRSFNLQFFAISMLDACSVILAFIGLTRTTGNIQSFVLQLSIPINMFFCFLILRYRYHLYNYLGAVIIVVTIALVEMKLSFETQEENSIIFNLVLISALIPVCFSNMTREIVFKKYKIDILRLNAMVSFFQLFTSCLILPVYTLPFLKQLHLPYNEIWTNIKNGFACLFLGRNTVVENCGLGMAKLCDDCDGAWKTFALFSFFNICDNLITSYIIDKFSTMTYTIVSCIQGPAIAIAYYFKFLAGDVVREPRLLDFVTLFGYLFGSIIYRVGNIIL
How it was run: (§1)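 PfCRT-expressing and control oocytes: ND96 pH 5.5 → 1.5 h at 27.5 °C → ice-cold ND96 wash → 10% SDS lysis → scintillation count.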

PfCRT^3D7 [3] = biological target: T1, PfCRT^3D7; assay: cell-based; format: cell-based; settings: PfCRT3D7 oocytes; for Uptake of [3H]CQ (% PfCRT3D7 control), trans-stimulation: total [3H]CQ transport, normalised to the oocyte type control; for PfCRT-mediated [3H]CQ transport, trans-stimulation (% PfCRT3D7 control): normalised to oocyte type control
How it was run: (§2)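 Transport measured in Xenopus oocytes expressing the transporters, 1.5 h at 27.5 °C in ND96 pH 5.5 unless noted. For trans-stimulation, VF-6 injected in 25 nL ND96 at pH 5.0–7.0 or Na^+-free (choline) buffer; intracellular levels based on ~400 nL oocyte volume. Ten oocytes per treatment, ≥4 experiments.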

PfNT1 = biological target: T2, PfNT1 (Plasmodium falciparum, UniProt Q8IDM6); assay: cell-based; format: cell-based; settings: PfNT1 oocytes, total [3H]CQ transport, normalised to the oocyte type control
T2 construct: expressed in transfected cells; host or cells: Xenopus laevis oocytes (stage V-VI), cRNA-injected
T2 sequence (Q8IDM6 whole entry): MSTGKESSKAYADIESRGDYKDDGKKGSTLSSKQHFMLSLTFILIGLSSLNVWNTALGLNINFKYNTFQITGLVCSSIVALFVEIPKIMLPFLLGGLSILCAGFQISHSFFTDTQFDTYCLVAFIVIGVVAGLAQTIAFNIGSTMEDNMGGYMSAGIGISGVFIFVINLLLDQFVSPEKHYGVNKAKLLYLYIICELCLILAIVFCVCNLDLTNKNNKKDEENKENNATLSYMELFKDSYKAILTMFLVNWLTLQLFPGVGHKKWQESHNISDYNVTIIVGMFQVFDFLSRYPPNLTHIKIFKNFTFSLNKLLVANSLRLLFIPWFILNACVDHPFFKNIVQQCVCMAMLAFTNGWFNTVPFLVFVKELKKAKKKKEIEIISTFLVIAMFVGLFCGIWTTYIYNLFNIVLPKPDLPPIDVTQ
How it was run: as §2

PfCRT^Ecu1110 [4] = biological target: T3, PfCRT^Ecu1110 (Plasmodium falciparum, UniProt Q9N623, A220S/I356L/K76T/N326D); assay: cell-based; format: cell-based; settings: for Uptake of [3H]CQ (% PfCRTEcu1110 control), trans-stimulation / PfCRT-mediated [3H]CQ transport, trans-stimulation (% PfCRTEcu1110 control): PfCRTEcu1110 oocytes; for Uptake of [3H]CQ (% PfCRTEcu1110 control), trans-stimulation: total [3H]CQ transport, normalised to the oocyte type control; for PfCRT-mediated [3H]CQ transport, trans-stimulation (% PfCRTEcu1110 control): normalised to oocyte type control; for [3H]CQ transport (% PfCRTDd2 control), trans-stimulation, PfCRTEcu1110: PfCRT-mediated component (background subtracted), sheet title says normalised to PfCRTDd2 control, mean ± SEM, SEM
T3 sequence (Q9N623 whole entry A220S/I356L/K76T/N326D): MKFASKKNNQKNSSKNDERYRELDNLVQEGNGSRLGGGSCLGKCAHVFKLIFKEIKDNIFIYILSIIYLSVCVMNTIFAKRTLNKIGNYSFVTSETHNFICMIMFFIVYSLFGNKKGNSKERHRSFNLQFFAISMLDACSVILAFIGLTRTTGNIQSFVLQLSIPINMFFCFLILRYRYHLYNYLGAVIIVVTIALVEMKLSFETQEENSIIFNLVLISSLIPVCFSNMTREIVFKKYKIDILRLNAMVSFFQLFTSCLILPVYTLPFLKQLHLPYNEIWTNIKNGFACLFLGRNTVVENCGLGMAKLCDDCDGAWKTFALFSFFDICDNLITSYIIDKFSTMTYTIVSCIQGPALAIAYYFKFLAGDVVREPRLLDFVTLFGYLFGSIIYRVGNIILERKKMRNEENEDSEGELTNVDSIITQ
How it was run: as §2

PfCRT^Dd2 [5] = biological target: T4, PfCRT^Dd2 (Plasmodium falciparum, UniProt Q9N623, A220S/I356T/K76T/M74I/N326S/N75E/Q271E/R371I); assay: cell-based; format: cell-based; settings: for PfCRT-mediated [3H]CQ transport, trans-stimulation (% PfCRTDd2 control): normalised to oocyte type control; for [3H]CQ transport (% PfCRTDd2 control), trans-stimulation, PfCRTDd2: PfCRT-mediated component (background subtracted), mean ± SEM, SEM
T4 sequence (Q9N623 whole entry A220S/I356T/K76T/M74I/N326S/N75E/Q271E/R371I): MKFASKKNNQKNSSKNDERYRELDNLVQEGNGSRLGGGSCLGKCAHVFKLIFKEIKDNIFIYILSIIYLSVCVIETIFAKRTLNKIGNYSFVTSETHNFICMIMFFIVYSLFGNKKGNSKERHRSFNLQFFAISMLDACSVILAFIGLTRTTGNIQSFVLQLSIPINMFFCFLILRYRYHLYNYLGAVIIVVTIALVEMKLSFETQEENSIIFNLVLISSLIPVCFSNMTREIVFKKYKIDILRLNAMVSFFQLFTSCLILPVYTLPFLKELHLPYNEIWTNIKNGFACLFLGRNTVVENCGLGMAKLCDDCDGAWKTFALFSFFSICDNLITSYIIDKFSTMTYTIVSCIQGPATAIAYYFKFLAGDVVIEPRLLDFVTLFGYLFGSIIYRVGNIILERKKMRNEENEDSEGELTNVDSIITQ
How it was run: as §2

PfCRT [6] = assay: Potential co-substrates tested for influx of VF-6 via PfCRT into the oocyte; format: cell-based, Plasmodium falciparum; design: key: X: Compounds that have been tested as potential co-substrates but are not required for influx of VF-6 via PfCRT into the oocyte
non-expressing oocytes [7] = format: cell-based, Xenopus laevis; settings: non-expressing oocytes, total [3H]CQ transport, normalised to the oocyte type control
How it was run: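 Oocytes (ten per treatment, ≥4 independent frogs/days) were preloaded by injecting VF-6 in 25 nL ND96 at pH 5.0, 5.5, 6.0 or 7.0, or Na^+-free choline buffer, then uptake run 1.5 h, 27.5 °C, ND96 pH 5.5 by default. Internal concentrations assumed ~400 nL oocyte volume.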

PfCRT^Ecu1110 [8] = biological target: T3, PfCRT^Ecu1110; assay: [3H]CQ uptake into Xenopus oocytes, cis-inhibition by unlabelled solute; format: cell-based; settings: for Uptake of [3H]CQ (% PfCRTEcu1110 control), cis-inhibition / PfCRT-mediated [3H]CQ transport, cis-inhibition (% PfCRTEcu1110 control): PfCRTEcu1110 oocytes; for Uptake of [3H]CQ (% PfCRTEcu1110 control), cis-inhibition: total [3H]CQ transport, normalised to the oocyte type control; for PfCRT-mediated [3H]CQ transport, cis-inhibition (% PfCRTEcu1110 control): background [3H]CQ accumulation subtracted, normalised to oocyte type control; for [3H]CQ transport (% PfCRTEcu1110 control), cis-inhibition, PfCRTEcu1110: PfCRT-mediated component (background subtracted), sheet title says normalised to PfCRTDd2 control, mean ± SEM, SEM
How it was run: as §1

PfCRT^Dd2 [9] = biological target: T4, PfCRT^Dd2; assay: as above; format: cell-based; settings: PfCRTDd2 oocytes, background [3H]CQ accumulation subtracted, normalised to oocyte type control
How it was run: as §1

non-expressing oocytes [10] = assay: cells; format: cell-based, Xenopus laevis; settings: non-expressing oocytes, total [3H]CQ transport, normalised to the oocyte type control
How it was run: as §1

[11] = [test solute]i = 45 mM (30 mM for some solutes due to solubility)
[12] = [test solute]i = 5 mM (intracellular)
[13] = [test solute]i = 45 mM (intracellular; 30 mM for some solutes due to solubility)
[14] = [test solute]i = 5 mM (injected)

Substance: PVNF [PF-4]
- Tested as potential co-substrate but not required for influx of VF-6 via PfCRT into the oocyte (PfCRT [1]): X
- Uptake of [3H]CQ (% PfCRT3D7 control), cis-inhibition (PfCRT^3D7 [2]; [test solute] = 0.5 mM): 99 ± 4.7 % PfCRT3D7 control
- Uptake of [3H]CQ (% PfCRT3D7 control), cis-inhibition (PfCRT^3D7 [2]; [test solute] = 1 mM): 100 ± 5.6 % PfCRT3D7 control
- Uptake of [3H]CQ (% PfCRT3D7 control), cis-inhibition (PfCRT^3D7 [2]; [test solute] = 2 mM): 101 ± 5.3 % PfCRT3D7 control
- Uptake of [3H]CQ (% PfCRT3D7 control), trans-stimulation (PfCRT^3D7 [3]; [test solute]i = 5 mM): 138 ± 4.2 % PfCRT3D7 control
- Uptake of [3H]CQ (% PfCRT3D7 control), trans-stimulation (PfCRT^3D7 [3]; [11]): 163 ± 7.4 % PfCRT3D7 control
- PfCRT-mediated [3H]CQ transport, trans-stimulation (% PfCRT3D7 control) (PfCRT^3D7 [3]; [12]): 130 ± 3.2 % PfCRT3D7 control
- PfCRT-mediated [3H]CQ transport, trans-stimulation (% PfCRT3D7 control) (PfCRT^3D7 [3]; [13]): 157 ± 4.4 % PfCRT3D7 control
- Uptake of [3H]CQ (% PfNT1 control), trans-stimulation (PfNT1; [test solute]i = 5 mM): 99 ± 4.2 % PfNT1 control
- Uptake of [3H]CQ (% PfNT1 control), trans-stimulation (PfNT1; [11]): 100 ± 2.9 % PfNT1 control
- Uptake of [3H]CQ (% PfCRTEcu1110 control), trans-stimulation (PfCRT^Ecu1110 [4]; [test solute]i = 5 mM): 120 ± 1.1 % PfCRTEcu1110 control
- Uptake of [3H]CQ (% PfCRTEcu1110 control), trans-stimulation (PfCRT^Ecu1110 [4]; [11]): 135 ± 1.4 % PfCRTEcu1110 control
- PfCRT-mediated [3H]CQ transport, trans-stimulation (% PfCRTEcu1110 control) (PfCRT^Ecu1110 [4]; [12]): 118 ± 0.3 % PfCRTEcu1110 control
- PfCRT-mediated [3H]CQ transport, trans-stimulation (% PfCRTEcu1110 control) (PfCRT^Ecu1110 [4]; [13]): 130 ± 3.2 % PfCRTEcu1110 control
- [3H]CQ transport (% PfCRTDd2 control), trans-stimulation, PfCRTEcu1110 (PfCRT^Ecu1110 [4]; [14]): 36 ± 1.3 % PfCRTEcu1110 control
- [3H]CQ transport (% PfCRTDd2 control), trans-stimulation, PfCRTEcu1110 (PfCRT^Ecu1110 [4]; [11]): 39 ± 1.7 % PfCRTEcu1110 control
- Uptake of [3H]CQ (% PfCRTDd2 control), trans-stimulation (PfCRT^Dd2 [5]; PfCRTDd2 oocytes, [test solute]i = 45 mM (30 mM for some solutes due to solubility), total [3H]CQ transport, normalised to the oocyte type control): 115 ± 2.7 % PfCRTDd2 control
- PfCRT-mediated [3H]CQ transport, trans-stimulation (% PfCRTDd2 control) (PfCRT^Dd2 [5]; [test solute]i = 5 mM (intracellular), PfCRTDd2 oocytes): 99 ± 1.9 % PfCRTDd2 control
- PfCRT-mediated [3H]CQ transport, trans-stimulation (% PfCRTDd2 control) (PfCRT^Dd2 [5]; [test solute]i = 45 mM (intracellular; 30 mM for some solutes due to solubility), PfCRTDd2 oocytes): 112 ± 0.9 % PfCRTDd2 control
- [3H]CQ transport (% PfCRTDd2 control), trans-stimulation, PfCRTDd2 (PfCRT^Dd2 [5]; [14]): 99 ± 1.9 % PfCRTDd2 control
- [3H]CQ transport (% PfCRTDd2 control), trans-stimulation, PfCRTDd2 (PfCRT^Dd2 [5]; [11]): 112 ± 0.9 % PfCRTDd2 control
- Tested as potential co-substrate but not required for influx of VF-6 via PfCRT into the oocyte (PfCRT [6]): X
- Uptake of [3H]CQ (% non-expressing oocyte control), trans-stimulation (non-expressing oocytes [7]; [test solute]i = 5 mM): 99 ± 2.7 % non-expressing oocyte control
- Uptake of [3H]CQ (% non-expressing oocyte control), trans-stimulation (non-expressing oocytes [7]; [11]): 99 ± 3.4 % non-expressing oocyte control
- Uptake of [3H]CQ (% PfCRTEcu1110 control), cis-inhibition (PfCRT^Ecu1110 [8]; [test solute] = 0.5 mM): 65 ± 4.3 % PfCRTEcu1110 control
- Uptake of [3H]CQ (% PfCRTEcu1110 control), cis-inhibition (PfCRT^Ecu1110 [8]; [test solute] = 1 mM): 59 ± 3.3 % PfCRTEcu1110 control
- Uptake of [3H]CQ (% PfCRTEcu1110 control), cis-inhibition (PfCRT^Ecu1110 [8]; [test solute] = 2 mM): 41 ± 2.4 % PfCRTEcu1110 control
- PfCRT-mediated [3H]CQ transport, cis-inhibition (% PfCRTEcu1110 control) (PfCRT^Ecu1110 [8]; [test solute] = 0.5 mM): 61 ± 2.6 % PfCRTEcu1110 control
- PfCRT-mediated [3H]CQ transport, cis-inhibition (% PfCRTEcu1110 control) (PfCRT^Ecu1110 [8]; [test solute] = 1 mM): 51 ± 4.2 % PfCRTEcu1110 control
- PfCRT-mediated [3H]CQ transport, cis-inhibition (% PfCRTEcu1110 control) (PfCRT^Ecu1110 [8]; [test solute] = 2 mM): 37 ± 2.9 % PfCRTEcu1110 control
- [3H]CQ transport (% PfCRTEcu1110 control), cis-inhibition, PfCRTEcu1110 (PfCRT^Ecu1110 [8]; [test solute] = 1 mM): 16 ± 0.2 % PfCRTEcu1110 control
- [3H]CQ transport (% PfCRTEcu1110 control), cis-inhibition, PfCRTEcu1110 (PfCRT^Ecu1110 [8]; [test solute] = 2 mM): 12 ± 0.3 % PfCRTEcu1110 control
- PfCRT-mediated [3H]CQ transport, cis-inhibition (% PfCRTDd2 control) (PfCRT^Dd2 [9]; [test solute] = 0.5 mM): 60 ± 3.3 % PfCRTDd2 control
- PfCRT-mediated [3H]CQ transport, cis-inhibition (% PfCRTDd2 control) (PfCRT^Dd2 [9]; [test solute] = 1 mM): 51 ± 0.3 % PfCRTDd2 control
- PfCRT-mediated [3H]CQ transport, cis-inhibition (% PfCRTDd2 control) (PfCRT^Dd2 [9]; [test solute] = 2 mM): 39 ± 2.1 % PfCRTDd2 control
- Uptake of [3H]CQ (% non-expressing oocyte control), cis-inhibition (non-expressing oocytes [10]; [test solute] = 0.5 mM): 98 ± 4.8 % non-expressing oocyte control
- Uptake of [3H]CQ (% non-expressing oocyte control), cis-inhibition (non-expressing oocytes [10]; [test solute] = 1 mM): 99 ± 2.6 % non-expressing oocyte control
- Uptake of [3H]CQ (% non-expressing oocyte control), cis-inhibition (non-expressing oocytes [10]; [test solute] = 2 mM): 98 ± 3.6 % non-expressing oocyte control
